Measured values from patent US5821246A, “Aniline derivatives” (Zeneca Limited, priority 1994, dated 1998).
Structures can show the parent of a compound that is named as a salt.

Assays:
[1] = tested on: human naso-pharyngeal cancer cell line KB; assay: Test (b): inhibition of the EGF-stimulated growth of the human naso-pharyngeal cancer cell line KB; format: cell-based; conditions: 72 h, KB cells, EGF (10 ng/ml), 3 days, MTT
Description: (b) An in vitro assay which determines the ability of a test compound to inhibit the EGF-stimulated growth of the human naso-pharyngeal cancer cell line KB.
KB cells were seeded into wells at a density of 1×10^4 -1.5×10^4 cells per well and grown for 24 hours in DHEM supplemented with 5% FCS (charcoal-stripped). Cell growth was determined after incubation for 3 days by the extent of metabolism of MTT tetrazolium dye to furnish a bluish colour. Cell growth was then determined in the presence of EGF (10 ng/ml) or in the presence of EGF (10 ng/ml) and a test compound at a range of concentrations. An IC50 value could then be calculated.

[2] = target: T1, EGF receptor tyrosine kinase (Homo sapiens, UniProt P00533); assay: Test (a): in vitro inhibition of the enzyme EGF receptor tyrosine kinase (partially purified from A-431 cells); format: biochemical; conditions: EGF receptor tyrosine kinase from A-431 cells
T1 construct: Receptor tyrosine kinase was obtained in partially purified form from A-431 cells; endogenous in cells; host or cells: A-431 cells (human vulval carcinoma)
Description: (a) An in vitro assay which determines the ability of a test compound to inhibit the enzyme EGF receptor tyrosine kinase. Receptor tyrosine kinase was obtained in partially purified form from A-431 cells (derived from human vulval carcinoma) by procedures related to those described by Carpenter et al., J. Biol. Chem., 1979, 254, 4884, Cohen et al., J. Biol. Chem., 1982, 257, 1523 and by Braun et al., J. Biol. Chem., 1984, 259, 2051.
A-431 cells were grown to confluence using Dulbecco's modified Eagle's medium (DHEM) containing 5% fetal calf serum (FCS). The obtained cells were homogenised in a hypotonic borate/EDTA buffer at pH 10.1. The homogenate was centrifuged at 400 g for 10 minutes at 0°-4° C. The supernatant was centrifuged at 25,000 g for 30 minutes at 0°-4° C. The pelleted material was suspended in 30 mM Hepes buffer at pH 7.4 containing 5% glycerol, 4 mM benzamidine and 1% Triton X-100, stirred for 1 hour at 0°-4° C., and recentrifuged at 100,000 g for 1 hour at 0°-4° C. The supernatant, containing solubilised receptor tyrosine kinase, was stored in liquid nitrogen.
For test purposes 40 μl of the enzyme solution so obtained was added to a mixture of 400 μl of a mixture of 150 mM Hepes buffer at pH 7.4, 500 μM sodium orthovanadate, 0.1% Triton X-100, 10% glycerol, 200 μl water, 80 μl of 25 mH DTT and 80 μl of a mixture of 12.5 mM manganese chloride, 125 mM magnesium chloride and distilled water. There was thus obtained the test enzyme solution.
Each test compound was dissolved in dimethylsulphoxide (DMSO) to give a 50 mM solution which was diluted with 40 mM Hepes buffer containing 0.1% Triton X-100, 10% glycerol and 10% DMSO to give a 500 μM solution. Equal volumes of this solution and a solution of epidermal growth factor (EGF; 20 μg/ml) were mixed.
[γ-^32 P]ATP (3000 Ci/mM, 250 μCi) was diluted to a volume of 2 ml by the addition of a solution of ATP (100 μM) in distilled water. An equal volume of a 4 mg/ml solution of the peptide Arg-Arg-Leu-Ile-Glu-Asp-Ala-Glu-Tyr-Ala-Ala-Arg-Gly in a mixture of 40 mH Hepes buffer at pH 7.4, 0.1% Triton X-100 and 10% glycerol was added.
The test compound/EGF mixture solution (5 μl) was added to the test enzyme solution (10 μl) and the mixture was incubated at 0°-4° C. for 30 minutes. The ATP/peptide mixture (10 μl) was added and the mixture was incubated at 25° C. for 10 minutes. The phosphorylation reaction was terminated by the addition of 5% trichloroacetic acid (40 μl) and bovine serum albumin (BSA; 1 mg/ml, 5 μl). The mixture was allowed to stand at 4° C. for 30 minutes and then centrifuged. An aliquot (40 μl) of the supernatant was placed onto a strip of Whatman p 81 phosphocellulose paper. The strip was washed in 75 mH phosphoric acid (4×10 ml) and blotted dry. Radioactivity present in the filter paper was measured using a liquid scintillation counter (Sequence A). The reaction sequence was repeated in the absence of the EGF (Sequence B) and again in the absence of the test compound (Sequence C).
Receptor tyrosine kinase inhibition was calculated as follows: [formula]
The extent of inhibition was then determined at a range of concentrations of test compound to give an IC50 value.

[3] = tested on: liver hepatocyte growth caused by the administration of the growth factor TGFα; assay: Test (c): in vivo inhibition of TGFα-stimulated liver hepatocyte growth in male rats (BrdU uptake); conditions: Rattus norvegicus, usually oral, TGFα 400 μg/kg subcutaneously, approximate ED50, BrdU uptake
Description: (c) An in vivo assay in a group of male rats which determines the ability of a test compound (usually administered orally as a ball-milled suspension in 0.5% polysorbate) to inhibit the stimulation of liver hepatocyte growth caused by the administration of the growth factor TGFα (400 μg/kg subcutaneously, usually dosed twice, 3 and 7 hours respectively after the administration of the test compound).
In a control group of rats, the administration of TGFα causes on average a 5-fold stimulation of liver hepatocyte growth.
Cell-growth in the control and test animals is determined as follows:
On the morning of the day after the dosing of the test compound (or 0.5% polysorbate in the control group), the animals are dosed with bromodeoxyuridine (BrdU; 100 mg/kg intraperitoneally). The animals are killed four hours later and the livers are excised.
Further tests were carried out using a range of doses of the test compounds to allow the calculation of an approximate ED50 value for the inhibition of liver hepatocyte proliferation as determined by inhibition of the uptake of BrdU.

[4] = tested on: EGF receptor tyrosine kinase; conditions: Fry et al., Science, 1994, 265, 1093; cited from earlier work
[5] = tested on: human mammary carcinoma which expresses EGF receptor tyrosine kinase; conditions: athymic nude mice; Toi et al., 1990; cited from earlier work
[6] = tested on: another carcinoma which does not express EGF receptor tyrosine kinase; conditions: Toi et al., 1990; cited from earlier work

T1 sequence (P00533 25-1210): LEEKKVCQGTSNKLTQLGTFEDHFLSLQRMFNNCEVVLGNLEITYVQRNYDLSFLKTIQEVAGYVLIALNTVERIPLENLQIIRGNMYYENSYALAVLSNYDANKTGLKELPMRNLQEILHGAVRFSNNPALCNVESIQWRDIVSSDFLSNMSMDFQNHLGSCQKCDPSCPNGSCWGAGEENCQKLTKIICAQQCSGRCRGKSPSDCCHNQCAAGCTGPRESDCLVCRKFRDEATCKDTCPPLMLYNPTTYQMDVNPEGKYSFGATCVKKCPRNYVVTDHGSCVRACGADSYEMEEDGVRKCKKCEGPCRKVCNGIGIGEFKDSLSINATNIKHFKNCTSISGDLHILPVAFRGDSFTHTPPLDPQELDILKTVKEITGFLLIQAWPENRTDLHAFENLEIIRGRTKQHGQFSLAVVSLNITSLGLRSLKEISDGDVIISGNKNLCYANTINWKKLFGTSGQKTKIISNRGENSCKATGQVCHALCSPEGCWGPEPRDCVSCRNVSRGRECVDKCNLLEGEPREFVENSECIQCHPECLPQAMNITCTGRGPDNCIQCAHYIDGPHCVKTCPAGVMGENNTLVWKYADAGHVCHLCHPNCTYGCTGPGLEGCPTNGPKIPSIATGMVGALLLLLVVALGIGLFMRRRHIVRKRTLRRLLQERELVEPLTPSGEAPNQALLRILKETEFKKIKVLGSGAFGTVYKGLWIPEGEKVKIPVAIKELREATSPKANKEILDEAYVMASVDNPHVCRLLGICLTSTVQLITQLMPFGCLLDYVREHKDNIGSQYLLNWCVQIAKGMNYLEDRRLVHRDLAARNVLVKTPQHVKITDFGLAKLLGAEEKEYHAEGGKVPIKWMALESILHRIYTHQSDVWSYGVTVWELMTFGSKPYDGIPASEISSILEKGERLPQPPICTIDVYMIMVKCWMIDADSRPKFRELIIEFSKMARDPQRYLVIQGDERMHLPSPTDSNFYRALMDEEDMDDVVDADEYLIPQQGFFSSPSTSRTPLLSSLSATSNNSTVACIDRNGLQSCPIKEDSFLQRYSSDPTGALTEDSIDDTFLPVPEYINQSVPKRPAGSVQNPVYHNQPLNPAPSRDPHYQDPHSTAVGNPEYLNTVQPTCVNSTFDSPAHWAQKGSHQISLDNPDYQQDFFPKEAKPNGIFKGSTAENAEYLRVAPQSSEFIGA

Row | Compound | IC50 [1] | IC50 [2] | ED50 [3] | inhibitor of EGF receptor tyrosine kinase [4] | growth of transplanted carcinoma expressing EGF receptor tyrosine kinase [5] | growth of carcinoma not expressing EGF receptor tyrosine kinase [6]
1 | COc1cc2ncnc(Nc3ccc(Sc4ccccc4)c(Cl)c3)c2cc1OC [4-(3-chloro-4-phenylthioanilino)-6,7-dimethoxyquinazoline] | 1300 nM | 80 nM | 12.5 mg/kg | – | – | –
2 | COc1cc2ncnc(Nc3cccc(Br)c3)c2cc1OC [4-(3'-bromoanilino)-6,7-dimethoxyquinazoline] | – | – | – | highly potent inhibitor | – | –
3 | O=CN/C=C/c1cc(O)ccc1O [erbstatin] | – | – | – | – | specifically attenuates the growth | without effect on the growth
4 | COc1cc2ncnc(Nc3ccc(Sc4nccn4C)c(Cl)c3)c2cc1OC [4-[3-chloro-4-(1-methylimidazol-2-ylthio)anilino]-6,7-dimethoxyquinazolinedihydrochloride salt] | 200 nM | 7 nM | < 12.5 mg/kg | – | – | –
5 | COc1cc2ncnc(Nc3ccc(C(=O)c4ccccc4)c(Cl)c3)c2cc1OC.Cl [4-(4-benzoyl-3-chloroanilino)-6,7-dimethoxyquinazoline hydrochloride salt] | 380 nM | 30 nM | < 5 mg/kg | – | – | –
6 | COc1cc2ncnc(Nc3ccc(Cc4ccccc4)c(Cl)c3)c2cc1OC.I [4-(4-benzyl-3-chloroanilino)-6,7-dimethoxyquinazoline hydroiodide salt] | 1200 nM | 100 nM | < 12.5 mg/kg | – | – | –

Further lines, with some results ahead:

Row | IC50 [1] | IC50 [2] | Compound | ED50 [3] | inhibitor of EGF receptor tyrosine kinase [4] | growth of transplanted carcinoma expressing EGF receptor tyrosine kinase [5] | growth of carcinoma not expressing EGF receptor tyrosine kinase [6]
7 | 430 nM | 66 nM | COc1cc2ncnc(Nc3ccc(OCc4ccccn4)c(C)c3)c2cc1OCCCN(C)C [6-(3-dimethylaminopropoxy)-7-methoxy-4-[3-methyl-4-(2-pyridylmethoxy)anilino]quinazoline] | – | – | – | –
8 | 930 nM | 40 nM | COc1cc2ncnc(Nc3ccc(OCc4ccccn4)c(C)c3)c2cc1OC.Cl.Cl [6,7-dimethoxy-4-[3-methyl-4-(2-pyridylmethoxy)anilino]quinazoline dihydrochloride salt] | 5 mg/kg | – | – | –
9 | 2090 nM | 450 nM | COc1cc2ncnc(Nc3ccc(OCc4ccccn4)c(C)c3)c2cc1OCCCN1CCOCC1 [7-methoxy-4-[3-methyl-4-(2-pyridylmethoxy)anilino]-6-(3-morpholinopropoxy)quinazoline] | – | – | – | –
